# Results as given in patent publication US20090143469A1, “SALTS OF NATEGLINIDE” (priority 2002, published 2009).
# Like-named read-outs stand apart in the source and are kept apart here.
# Assays:
# Type in all cases: physicochemical
# [1] = Solubility in water of nateglinide salts
# [2] = Bulk density of nateglinide salts
# [3] = Gain in weight at 84% RH (hygroscopicity) of nateglinide salts; settings: for Gain % (gain in weight at 84% RH): 84% RH (relative humidity), * = XRPD changed, confirmed by Thermalgravimetry; for hygroscopicity (in words): different relative humidities
Compound,Bulk Density [2],Gain % (gain in weight at 84% RH) [3],Solubility Water [1],other results
"CC(C)[C@H]1CC[C@H](C(=O)N[C@H](Cc2ccccc2)C(=O)O)CC1 [Form B of nateglinide, N-(trans-4-isopropylcyclohexylcarbonyl)-D-phenylalanine, reference compound]",0.18 g/mL,,,solubility [1]: 90 µg/mL
CC(C)[C@H]1CC[C@H](C(=O)N[C@H](Cc2ccccc2)C(=O)O)CC1.NCCCCC(N)C(=O)O [Comp. No. 14],,1.3%,,
CC(C)[C@H]1CC[C@H](C(=O)N[C@H](Cc2ccccc2)C(=O)[O-])CC1.[Na+] [Sodium],0.14 g/mL,,>40000 µg/mL,
CC(C)[C@H]1CC[C@H](C(=O)N[C@H](Cc2ccccc2)C(=O)O)CC1.NC(CO)(CO)CO [Comp. No. 13],0.51 g/mL,<0.1%,,Solubility Water ([1]; listed as TRIS): >40000 µg/mL; Solubility Water ([1]; listed as tris(hydroxymethyl)-aminomethane salt of nateglinide): more than 40 mg/ml
"CC(C)[C@H]1CC[C@H](C(=O)N[C@H](Cc2ccccc2)C(=O)O)CC1 [Form H of nateglinide, N-(trans-4-isopropylcyclohexylcarbonyl)-D-phenylalanine, reference compound]",0.28 g/mL,<0.1%,90 µg/mL,
CC(C)[C@H]1CC[C@H](C(=O)N[C@H](Cc2ccccc2)C(=O)[O-])CC1.[Na+] [Compound No. 1],,1.19%,,
Ammonium,0.20 g/mL,,<200 µg/mL,
[Ca] [Calcium],0.24 g/mL,,540 µg/mL,
CC(C)[C@H]1CC[C@H](C(=O)N[C@H](Cc2ccccc2)C(=O)[O-])CC1.CC(C)[C@H]1CC[C@H](C(=O)N[C@H](Cc2ccccc2)C(=O)[O-])CC1.[Mg+2] [Comp. No. 11],0.21 g/mL,<0.1%,450 µg/mL,hygroscopicity (in words) [3]: non-hygroscopic; water solubility compared with other forms (in words) [1]: comparable to that of the calcium analogue
CC(C)C1CCC(C(=O)NC(Cc2ccccc2)C(=O)O)CC1.N (stereo not drawn) [Comp. No. 17],,<0.1%,,
Lysine,0.50 g/mL,,,
[K+] [Potassium],0.17 g/mL,,>40000 µg/mL,
CC(C)C1CCC(C(=O)NC(Cc2ccccc2)C(=O)[O-])CC1.CC(C)C1CCC(C(=O)NC(Cc2ccccc2)C(=O)[O-])CC1.[Ca+2] (stereo not drawn) [Compound No. 9],,0.4%,,
CC(C)[C@H]1CC[C@H](C(=O)N[C@H](Cc2ccccc2)C(=O)O)CC1.CNC[C@H](O)[C@@H](O)[C@H](O)[C@H](O)CO [Comp. No. 12],0.16 g/mL,<0.1%,7300 µg/mL,hygroscopicity (in words) [3]: non-hygroscopic; water solubility compared with other forms (in words) [1]: lower than that of the alkaline metal salts of nateglinide
CC(C)C1CCC(C(=O)NC(Cc2ccccc2)C(=O)[O-])CC1.[K+] (stereo not drawn) [Compound No. 5],,8.2* %,,
